Each structure is given as a SMILES string. A value given as a limit tells only on which side of the number the result lay.

As a reminder, the melting point is the temperature, or range, at which the solid turns liquid. As for `Cc1c(F)cccc1Cc1c(-c2ccccc2)c2cc(O)cnn2c1C(=O)N1CCN(C(=O)OC(C)(C)C)CC1`, the melting point stood at 165 °C.

In the case of `CC1(C)Oc2ccc(C#N)cc2[C@@H](NC(=NC#N)N2CCN(Cc3ccccc3)CC2)[C@@H]1O` (relative stereo), the melting point is 205 to 207 °C.

For `NC(=O)c1cnn2c1N(C(=O)CCl)CC=C2c1cccc(C(F)(F)F)c1`, the melting point was in the range of 174 to 176 °C.

`Cc1sc(-c2ccc(Br)cc2)nc1O` displayed a melting point of 206 to 207 °C.

Turning to `O=[N+]([O-])C=C(NCCSCc1ncccc1Br)NCCSCc1ncccc1Br`, the melting point lay within 122 to 123 °C.

With `Cc1nc(-n2cc(COc3ccccc3)nn2)sc1C(=O)NCc1ccccc1`, the melting point is 140 to 143 °C.

As to `CCCc1c(OCCCOc2cc(OCC(=O)O)ccc2C(C)=O)ccc(C(C)=O)c1O`, the melting point was 151 to 155 °C.

Compound `Fc1cc(F)c(-c2c(Cl)nc(Cl)n2-c2ccc(Cl)cc2)c(F)c1` gave a melting point of 112 to 119 °C.

For the compound `CC(C)c1cc2c(cc1O)C(=O)CCC2`, the melting point was 149 to 150 °C.

Regarding `CC(CCCc1ccc(CCCCNC(=N)NC(=O)c2nc(Cl)c(N)nc2N)cc1)NCC(O)c1cccc(O)c1` (centres undefined), the melting point fell in the range of 82 to 86 °C.

The compound `CCCCc1c(OC)cc(C)c(C=CC(C)=CC=CC(C)=CC(=O)OCC)c1C` yielded a melting point of 147 to 148 °C.

In turn, `CC(=O)Nc1cccc(C(=O)N[C@@H](C)C(=O)N2CCC[C@H]2C(=O)O)c1C(=O)O` came in with a melting point of 127 to 128 °C.

`CNC(=O)n1ccc(O)cc1=O`: the melting point was found to be 268 °C.

In turn, `OC1c2ccccc2Sc2ccccc21` displayed a melting point of 102 to 105 °C.

`COC(=O)CN(C(=O)CSc1nc2c(F)c(F)cc(F)c2s1)c1ccccc1` had a melting point of 145 to 147 °C.

On to `COC(=O)C(CC(=O)N1CCOCC1)Oc1ccccc1` (centres undefined), for which the melting point lay within 83 to 84 °C.

Turning to `CCCCCCCC(=O)c1ccc(CCC(C)(CCOC(C)=O)NC(C)=O)cc1` (centres undefined), the melting point lay in the range of 83 to 84 °C.

Regarding `CC(=O)N(c1cc2occc(=O)c2cc1Oc1ccccc1)S(C)(=O)=O`, the melting point lay in the range of 166 to 169 °C.

`COc1cc2nc(N3CCN(c4nccs4)CC3)nc(N)c2cc1OC`: the melting point is 220 to 221 °C.

With `CC(C)(CO)CCCCCCC(O)CCCCCCC(C)(C)CO`, the melting point was in the range of 75 to 77 °C.

In turn, `CCNS(=O)(=O)c1cccc(OCc2nc3ccccc3n2C)c1` came in with a melting point of 169 to 173 °C.

`O=C1N(Cc2ccccn2)c2ccc3ncsc3c2C12COc1cc3c(cc12)OCCO3` (centres undefined) returned a melting point of 156 to 158 °C.

Turning to `COC(=O)c1cc(NS(C)(=O)=O)c2cc(Cc3ccc(F)cc3)cnc2c1O`, the melting point is 190 °C.

Compound `CC(=O)OC1CC2=CC=C3C4CCC(C(C)CCCC(C)C)C4(C)CCC3C2(C)C(OC(C)=O)C1` (centres undefined) yielded a melting point of 113 to 114 °C.

As for `CCOC(=O)C1=Cc2ccc(OCc3ccccc3)cc2OCC1`, the melting point was 75 to 76 °C.

As to `CN1CC=C(c2c[nH]c3ccc(OS(=O)(=O)c4ccccc4)cc23)CC1`, the melting point was in the range of 186 to 190 °C.

In turn, `NC1(C2CCN(c3c(F)cc4c(=O)c(C(=O)O)cn(C5CC5)c4c3F)C2)CC1` (centres undefined) returned a melting point of 227 to 230 °C.

With `CCOC(=O)CN(C#N)Cc1cc(-n2cc(C)nc2C)cc(C)c1N`, the melting point fell in the range of 135 to 140 °C.

On to `N[C@@H](COc1cccc(Cl)n1)c1ccccc1`, for which the melting point lay in the range of 56 to 57 °C.

The compound `O=C(Cc1ccccc1)NC1C(=O)N2C1SC1(CCN(Cc3ccccc3)CC1)C2C(=O)OCc1ccccc1` (centres undefined) had a melting point of 130 to 131 °C.

`ON=C(Cc1ccccc1)c1ccccn1` yielded a melting point of 151 to 153 °C.

As for `O=C(O)c1cccc(-c2cc3ccc(Cl)cc3[nH]c2=O)c1`, the melting point was greater than 330 °C.

For `N#Cc1cc(C(O)CN(Cc2ccccc2)Cc2ccccc2)cc2c1NCC2` (centres undefined), the melting point was in the range of 139 to 140 °C.

As for `N#CC1=C(c2ccccc2)Nc2n[nH]cc2C1c1cccc2ccccc12` (centres undefined), the melting point came to 174 °C.

Values taken from a melting point compilation (Tetko et al.; mined from patent text by program, amines drawn as free bases though some values may be those of a salt).
